Conditions in all cases: exposure time: 15 min to 3 h acute
In experiment [1] the test system is Dugesia japonica. Nature of the experiment: resting fraction in blue light vs vehicle (difference in fraction x100 vs vehicle); higher = higher incidence or increase relative to vehicle control. In short, it runs like this: (§1)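 The resting fraction, in the dark or under blue light, comes from automated tracking of intact, fasted Dugesia japonica. Worms sat singly in wells of a 48-well plate in 200 μL and were tested 15 min to 3 h after exposure in 0.5% DMSO or water vehicle. The plate's vehicle median was subtracted from each worm and the difference multiplied by 100, then the median was reported after excluding worms that crawled out.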

Experiment [2] concerns Dugesia japonica. Nature of the experiment: speed second 30 s blue light vs vehicle (% change vs vehicle); higher = higher incidence or increase relative to vehicle control. In short, it runs like this:
(§2)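 For each worm, crawling speed under dark or blue-light conditions was tracked automatically and expressed against the median of that plate's vehicle worms, and the reported value is the median percent change. The worms were intact, fasted Dugesia japonica held one per well in 200 μL in a 48-well plate, exposed in 0.5% DMSO or water vehicle and tested from 15 min to 3 h afterwards. Eight were used per concentration per plate across technical triplicate (n = 24), excluding any that crawled out.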

The test system of experiment [3] is Dugesia japonica. Nature of the experiment: contracted body shape incidence (% planarians (vehicle-normalised)); higher = higher incidence or increase relative to vehicle control. The method in brief: (§3)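 Single D. japonica planarians, fasted 5–7 days, sat in 200 μL per well of sealed 48-well plates and were screened 15 minutes–3 hours after exposure to at least 5 concentrations. Shapes were scored by hand and blind. The reported value is the incidence of a particular shape, or of any abnormal shape, ×100, set against in-plate vehicle controls with negatives taken as 0.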

For experiment [4], the system named is Dugesia japonica. Nature of the experiment: loss of heat-induced scrunching incidence (% planarians (vehicle-normalised)); higher = higher incidence or increase relative to vehicle control. In short, it runs like this: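 Planarians of the species D. japonica, fasted for 5–7 days, were placed singly in wells of sealed 48-well plates in 200 μL and exposed to at least 5 concentrations, 24 worms per concentration in technical triplicates. Scrunching in response to a noxious heat stimulus was tested within 15 minutes–3 hours, and any worm that crawled out was excluded. The reported figure is the incidence of non-scrunching worms, normalised to vehicle controls on the same plate. This incidence is given ×100, with negatives set to 0.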

Experiment [5] deals with Dugesia japonica. The experiment can be described thus: crawl-out incidence (% planarians); higher = higher incidence or increase relative to vehicle control. On the procedure:
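Adult asexual Dugesia japonica planarians (1 per well, 48-well plate, n=24 over technical triplicates) were exposed acutely (15 min to 3 h) to each compound (0.5% DMSO or water vehicle) and screened on a robotic platform for crawl-out, stickiness, body shape, phototaxis, noxious-heat scrunching and locomotion endpoints. Binary endpoints are incidence rate x100. Continuous endpoints are the median response normalised to the plate vehicle median, as % change or difference. Negative incidences after vehicle subtraction were set to 0.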

For experiment [6], the system named is Dugesia japonica. The experiment can be described thus: any abnormal body shape incidence (% planarians (vehicle-normalised)); higher = higher incidence or increase relative to vehicle control. The method in brief:
as §3

Experiment [7] has as its system Dugesia japonica. The experiment can be described thus: corkscrew incidence (% planarians (vehicle-normalised)); higher = higher incidence or increase relative to vehicle control. In short, it runs like this:
as §3

Experiment [8] deals with Dugesia japonica. Nature of the experiment: speed first 30 s blue light vs vehicle (% change vs vehicle); higher = higher incidence or increase relative to vehicle control. The method in brief:
as §2

Experiment [9] deals with Dugesia japonica. Nature of the experiment: noxious heat displacement strength vs vehicle (% change vs vehicle); higher = higher incidence or increase relative to vehicle control. The method in brief: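 Values are the median percent change in displacement strength under noxious heat, scored by automated object tracking in the scrunching assay with intact, fasted Dugesia japonica. Each worm was placed alone in a well of a 48-well plate in 200 μL and tested 15 min to 3 h after exposure in 0.5% DMSO or water vehicle. Eight worms per concentration per plate were run in technical triplicate (n = 24), with each worm normalised to the plate's vehicle median and worms that crawled out excluded.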

For experiment [10], the system named is Dugesia japonica. Nature of the experiment: stickiness incidence (% planarians (vehicle-normalised)); higher = higher incidence or increase relative to vehicle control. In short, it runs like this: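 Fasted Dugesia japonica planarians, one per well of a sealed 48-well plate in 200 μL solution, were tested 15 min–3 h after exposure to half- or quarter-log concentration series. The vehicle was 0.5% DMSO or water. Stickiness was scored as a binary endpoint in the Stickiness assay, pooling technical triplicates (n = 24). Incidence was normalised to in-plate vehicle incidence, with negatives set to 0, and multiplied by 100. Crawled-out worms were excluded.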

In experiment [11] the test system is Dugesia japonica. The experiment can be described thus: anxiety (time in outer well region) vs vehicle (% change vs vehicle); higher = higher incidence or increase relative to vehicle control. The method in brief: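 The value is the median normalized time that planarians spent in the outer portion of the well. D. japonica worms, fasted 5–7 days, were held singly in 200 μL per well of sealed 48-well plates at at least 5 concentrations (n = 24 per concentration) and screened within 15 minutes–3 hours. Each worm's response was divided by, or reduced by, the plate vehicle median and then multiplied by 100, and worms that crawled out were left out.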

In experiment [12] the test system is Dugesia japonica. Nature of the experiment: speed in dark vs vehicle (% change vs vehicle); higher = higher incidence or increase relative to vehicle control. On the procedure: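 Adult asexual Dugesia japonica planarians (1 per well, 48-well plate, n=24 over technical triplicates) were exposed acutely (15 min to 3 h) to each compound (0.5% DMSO or water vehicle) and screened on a robotic platform for crawl-out, stickiness, body shape, phototaxis, noxious-heat scrunching and locomotion endpoints. Binary endpoints are incidence rate x100 normalised to in-plate vehicle controls. Continuous endpoints are the median response normalised to the plate vehicle median, as % change or difference. Negative incidences after vehicle subtraction were set to 0.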

Experiment [13] relates to Dugesia japonica. The experiment can be described thus: total locomotor bursts minus vehicle (bursts difference vs vehicle); higher = higher incidence or increase relative to vehicle control. In short, it runs like this:
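Fasted Dugesia japonica planarians were placed one per well in a sealed 48-well plate with 200 μL solution and exposed to half- or quarter-log concentration series, with 0.5% DMSO or water as vehicle. Testing took place 15 min–3 h after exposure, with technical triplicates totalling n = 24. Total locomotor bursts, an unstimulated behaviour, were scored by image-based object tracking, and the plate vehicle-control median was subtracted from each planarian's value without scaling. The reported value is the median normalised response, excluding worms that crawled out.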

In experiment [14] the test system is Dugesia japonica. Nature of the experiment: hyperkinesis incidence (% planarians (vehicle-normalised)); higher = higher incidence or increase relative to vehicle control. The method in brief: as §3
Experiment [15] relates to Dugesia japonica. The experiment can be described thus: pharynx extrusion incidence (% planarians (vehicle-normalised)); higher = higher incidence or increase relative to vehicle control. In short, it runs like this:
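Pharynx extrusion was scored manually and blind as a body-shape category in intact, fasted Dugesia japonica, one per well of a 48-well plate in 200 μL. Worms were tested 15 min to 3 h after exposure in 0.5% DMSO or water vehicle. Eight worms per concentration per plate were run in technical triplicate (n = 24). The incidence rate ×100 was normalised to in-plate vehicle controls, negatives were set to 0, and worms that crawled out were excluded.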

In experiment [16] the test system is Dugesia japonica. Nature of the experiment: C-shape incidence (% planarians (vehicle-normalised)); higher = higher incidence or increase relative to vehicle control. In short, it runs like this: as §3
Experiment [17] concerns Dugesia japonica. Nature of the experiment: loss of phototaxis incidence (% planarians (vehicle-normalised)); higher = higher incidence or increase relative to vehicle control. The method in brief:
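Loss of phototaxis was scored as a yes/no endpoint in intact, fasted Dugesia japonica, one per well of a 48-well plate in 200 μL. Worms were tested 15 min to 3 h after exposure in 0.5% DMSO or water vehicle, using automated object tracking. Eight worms per concentration per plate were run in technical triplicate (n = 24). The incidence rate ×100 was normalised to in-plate vehicle controls, negatives were set to 0, and worms that crawled out were excluded.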

Experiment [18] relates to Dugesia japonica. The experiment can be described thus: resting fraction in dark vs vehicle (difference in fraction x100 vs vehicle); higher = higher incidence or increase relative to vehicle control. The method in brief:
as §1

Bounds are passed on as bounds.

Consider `O=C(CCCN1CC=C(n2c(=O)[nH]c3ccccc32)CC1)c1ccc(F)cc1` [droperidol] (1 µM), for which the “resting fraction in blue light” value in the experiment on Dugesia japonica [1] turned out to be 9.81. Also, the “speed second 30 s blue light” value in the experiment with Dugesia japonica [2] is -69.5. Moreover, the “contracted body shape incidence” value in the experiment on Dugesia japonica [3] was 0. Besides, in the experiment on Dugesia japonica [4], the “loss of heat-induced scrunching incidence” value was 58.3. For the same compound, in the experiment with Dugesia japonica [5], the crawl-out incidence turned out to be 0. Further, in the experiment on Dugesia japonica [6], the “any abnormal body shape incidence” value is 16.7. This compound also displayed a corkscrew incidence with Dugesia japonica [7] of 4.17. Also, the “speed first 30 s blue light” value in the experiment on Dugesia japonica [8] is -63.6. Also, in the experiment with Dugesia japonica [9], the “noxious heat displacement strength” value was -54.4. In the experiment on Dugesia japonica [10], this compound registered a stickiness incidence of at most 0. In the experiment on Dugesia japonica [11], this compound came in with an anxiety of 11.5. In addition, in the experiment with Dugesia japonica [12], the speed in dark was -60.7. The “total locomotor bursts minus vehicle” value in the experiment with Dugesia japonica [13] was 11.8. The same compound showed a hyperkinesis incidence in the experiment with Dugesia japonica [14] of 12.5. Moreover, the pharynx extrusion incidence in the experiment on Dugesia japonica [15] was 0. In addition, the C-shape incidence in the experiment on Dugesia japonica [16] came out at 0. Besides, the “loss of phototaxis incidence” value in the experiment on Dugesia japonica [17] stood at 16.7. Moreover, in the experiment with Dugesia japonica [18], the “resting fraction in dark” value was 3.77.

Regarding `CN(C)CCCN1c2ccccc2CCc2ccccc21` [imipramine] (0.316 µM), the “resting fraction in blue light” value in the experiment on Dugesia japonica [1] is 1.3. In the experiment on Dugesia japonica [2], the “speed second 30 s blue light” value is -12.2. For the same compound, the “contracted body shape incidence” value in the experiment with Dugesia japonica [3] was found to be 4.17. Moreover, the “loss of heat-induced scrunching incidence” value in the experiment on Dugesia japonica [4] was at most 0. In the experiment with Dugesia japonica [5], the crawl-out incidence was determined as 0. Besides, in the experiment with Dugesia japonica [6], the “any abnormal body shape incidence” value was found to be 8.33. In addition, in the experiment on Dugesia japonica [7], the corkscrew incidence is 0. Also, in the experiment with Dugesia japonica [8], the “speed first 30 s blue light” value is -17.6. Also, in the experiment with Dugesia japonica [9], the “noxious heat displacement strength” value was determined as 23.7. This compound gave a stickiness incidence with Dugesia japonica [10] of at most 0. The anxiety in the experiment on Dugesia japonica [11] was -0.7. In the experiment on Dugesia japonica [12], the speed in dark was -16.2. In the experiment on Dugesia japonica [13], the “total locomotor bursts minus vehicle” value was 5.25. Moreover, the hyperkinesis incidence with Dugesia japonica [14] stood at 0. In the experiment with Dugesia japonica [15], this compound yielded a pharynx extrusion incidence of 0. In the experiment with Dugesia japonica [16], this compound showed a C-shape incidence of 0. Further, in the experiment with Dugesia japonica [17], the “loss of phototaxis incidence” value was determined as 4.17. Also, the “resting fraction in dark” value in the experiment on Dugesia japonica [18] is 5.24.

As for `CN1CC(=O)N=C1NC(=O)Nc1cccc(Cl)c1` [fenobam] (56.2 µM), the “resting fraction in blue light” value in the experiment with Dugesia japonica [1] was found to be 0. Moreover, in the experiment with Dugesia japonica [2], the “speed second 30 s blue light” value was -8.21. Further, in the experiment on Dugesia japonica [3], the “contracted body shape incidence” value worked out at 0. In addition, in the experiment on Dugesia japonica [4], the “loss of heat-induced scrunching incidence” value was at most 0. This compound had a crawl-out incidence in the experiment on Dugesia japonica [5] of 0. For the same compound, the “any abnormal body shape incidence” value in the experiment on Dugesia japonica [6] turned out to be 0. In the experiment on Dugesia japonica [7], this compound displayed a corkscrew incidence of 0. Besides, in the experiment with Dugesia japonica [8], the “speed first 30 s blue light” value is -6.17. The “noxious heat displacement strength” value in the experiment on Dugesia japonica [9] is -21.7. Further, the stickiness incidence with Dugesia japonica [10] is at most 0. For the same compound, the anxiety in the experiment with Dugesia japonica [11] was determined as 9.05. In the experiment with Dugesia japonica [12], the speed in dark is -1.71. Moreover, in the experiment on Dugesia japonica [13], the “total locomotor bursts minus vehicle” value was -0.5. The compound also displayed a hyperkinesis incidence in the experiment on Dugesia japonica [14] of 0. In the experiment with Dugesia japonica [15], the pharynx extrusion incidence was 0. Also, the C-shape incidence with Dugesia japonica [16] was determined as 0. The “loss of phototaxis incidence” value in the experiment with Dugesia japonica [17] is 12.5. Besides, the “resting fraction in dark” value in the experiment on Dugesia japonica [18] is -0.17.
